Test results published in patent US20210205382A1, “METHODS AND COMPOSITIONS FOR USING METAL ELEMENTS IN AAV GENE THERAPY” (priority 2018, published 2021).

Columns and labels:
[1] = test system: HeLa cells infected with scAAV2-EGFP; experiment: Transduction efficiency of scAAV2-EGFP in HeLa cells (EGFP expression, fluorescent microscopy); conditions: for concentration giving maximal increase in transgene expression / maximal increase in transgene expression compared to when no essential metal element was added: HeLa, scAAV2-EGFP, 200 vgs per cell, 48 hours after infection; for maximal increase in transgene expression compared to when no essential metal element was added: at the concentration of maximal increase; for target blood concentration determined from the concentration of greatest improvement of AAV transduction efficiency in vitro: based on FIGS. 1H, 1F, 1C, 1I; for improvement of AAV transduction efficiency: cells infected with rAAV, metal alone or in combination (FIG. 2B)
Protocol: In an initial set of experiments, HeLa cells were infected with self-complementary AAV2 (scAAV2) comprising nucleic acid encoding EGFP (scAAV2-EGFP) at a multiplicity of infection of 200 viral genomes (vgs) per cell. Thereafter, various essential metal elements were added to the cell cultures at different concentrations. Transduction efficiency was measured 48 hours after infection, by evaluating the expression of EGFP using fluorescent microscopy. Images were analyzed using ImageJ software.

[2] = test system: ZIP14 over-expressing Huh7 cells; experiment: Zn2+ effects in Huh7 cells over-expressing ZIP14, transduced with scAAV2-mCherry; assay type: cell-based, human
From the text: The effect of metal ion (e.g., zinc) on the transduction efficiency of AAV vectors may be due to free floating zinc, because the increase in transduction occurs when the cell has taken up zinc to the point where extracellular accumulation occurs. […] ZIP14 is a metal ion transporter that primarily transports zinc into cells.
(§1) Therefore, targeting ZIP14-deficient HCC tumors would be ideal for Zn2+ infusions due to their tendency to prevent zinc uptake, and therefore, increase the level of environmental Zn2+. To test this hypothesis, Huh7 cells were either mock-transfected, or transfected with a recombinant plasmid containing a CMV promoter-driven ZIP14-EGFP fusion protein, and were transduced with scAAV2-mCherry vectors under identical conditions.

[3] = test system: Huh7 cells; experiment: Zn2+-induced cytotoxicity in Huh7 cells (mock-transfected); assay type: cell-based, human
[4] = test system: Huh7 cells; experiment: Transgene expression of rAAV2-mCherry in Huh7 cells with zinc; assay type: cell-based, human; conditions: 15 μg/ml of Zn2+
From the text: as §1

[5] = test system: Huh7 cells infected with scAAV3-EGFP; experiment: Percentage of Huh7 cells transduced by scAAV3-EGFP (flow cytometry); assay type: cell-based, human; conditions: different concentrations, flow cytometry (FIG. 4)
Protocol: Huh7 cells were infected with self-complementary AAV3 (scAAV3) comprising nucleic acid encoding EGFP (scAAV3-EGFP). Thereafter, zinc chloride was added to the cell cultures at different concentrations. Transduction efficiency was measured by evaluating the expression of EGFP using flow cytometry.

[6] = test system: HepG2 cells; experiment: Factor IX expression in HepG2 cells infected with AAV3-Factor IX (Western blot); assay type: cell-based; conditions: rAAV3-Factor IX, 20 μg/ml, 3h post infection
Protocol: HepG2 cells, which express factor IX to a lower degree compared to other cell types, were cultured. They were then either infected with rAAV3 particles carrying nucleic acid encoding Factor IX, or infected with rAAV3 particles carrying nucleic acid encoding Factor IX and treated with 20 μg/ml of ZnCl2. When level of Factor IX expressed in the cells was measured using Western blot analysis after the cells there harvest 3h post infection.

[7] = test system: HeLa cells; experiment: Zn2+-induced cytotoxicity in HeLa cells; assay type: cell-based
[8] = test system: CCK8 cells; experiment: AAV2-mCherry transduction efficiency versus cell viability with varying zinc; assay type: cell-based; conditions: varying concentrations of zinc (FIG. 5)
From the text: FIG. 5 provides an overlap of AAV transduction efficiency data and cell viability data from experiments in which CCK8 cells were transduced with AAV2 comprising mCherry encoding nucleic acid and treated with varying concentrations of zinc. […] FIGS. 6, 7, and 8 show similar data for HEK293 cells, HeLa cells, and HepG2 cells.

SMILES | concentration giving maximal increase in transgene expression [1] | maximal increase in transgene expression compared to when no essential metal element was added [1] [fold] | target blood concentration determined from the concentration of greatest improvement of AAV transduction efficiency in vitro [1] [µg/mL] | improvement of AAV transduction efficiency [1] [fold] | zinc-induced improvement of rAAV transduction efficiency ([2]; Huh7 cells transfected with a ZIP14 gene) | Zn2+-induced cytotoxicity ([2]; ZIP14 over-expressing Huh7 cells, final concentration of 20 μg/ml) | concentrations found to be cytotoxic ([3]; Huh7 cells) | Zn2+-induced cytotoxicity ([3]; mock-treated Huh7 cells, final concentration of 20 μg/ml) | increase in the transgene expression [4] [fold] | increase in transgene expression ([1]; HeLa cells, final concentration of 30 μg/ml) [fold] | percentage of cells transduced by the scAAV3-EGFP vector [5] | level of Factor IX expression compared to cells not treated with metal elements [6] | concentration inducing significant cytotoxicity [7] | rAAV transduction efficiency versus cell viability [8]
[Cl][Co][Cl] [cobalt chloride] | 25 µg/mL | ~2 | 20 to 30 | ~2 | – | – | – | – | – | – | – | – | – | –
[Cl-].[Cl-].[Mg+2] [magnesium chloride] | approximately 100 μg/ml | ~2 | 100 | – | – | – | – | – | – | – | – | – | – | –
[Cl][Ni][Cl] [nickel chloride] | 20 µg/mL | ~3 | 200 | ~2 | – | – | – | – | – | – | – | – | – | –
[Cl-].[Cl-].[Zn+2] [zinc chloride] | 30 µg/mL | ~8 | 30 | ~8 | reduction in the zinc-induced improvement of rAAV transduction efficiency | evaded Zn2+-induced cytotoxicity | exceeding 20 μg/ml | not mock-treated Huh7 cells, evaded Zn2+-induced cytotoxicity | ~7 | ~8 | increases with increasing concentration of zinc chloride | greater level of Factor IX expression | exceeding 30 μg/ml | drop in rAAV transduction efficiency correlates with cell viability
